The values that follow are results of earlier work, collected in patent US7638299B2, “Biosynthetic polypeptides utilizing non-naturally encoded amino acids” (Ambrx, Inc., priority 2004, dated 2009).

Like-named read-outs stand apart in the source and are kept apart here. No end group written: not given here.

For series [1] the following is noted: administered subcutaneously.
Series [2] relates to HIV-1.
The conditions of series [3]: in vitro studies and in animals.
The test system of series [4] is food intake in rats.
Series [5] concerns the target T1, GLP-1 receptor (Rattus norvegicus, UniProt P32301).
T1 construct: host or cells: live rats (endogenous receptor)
T1 sequence (P32301 22-463): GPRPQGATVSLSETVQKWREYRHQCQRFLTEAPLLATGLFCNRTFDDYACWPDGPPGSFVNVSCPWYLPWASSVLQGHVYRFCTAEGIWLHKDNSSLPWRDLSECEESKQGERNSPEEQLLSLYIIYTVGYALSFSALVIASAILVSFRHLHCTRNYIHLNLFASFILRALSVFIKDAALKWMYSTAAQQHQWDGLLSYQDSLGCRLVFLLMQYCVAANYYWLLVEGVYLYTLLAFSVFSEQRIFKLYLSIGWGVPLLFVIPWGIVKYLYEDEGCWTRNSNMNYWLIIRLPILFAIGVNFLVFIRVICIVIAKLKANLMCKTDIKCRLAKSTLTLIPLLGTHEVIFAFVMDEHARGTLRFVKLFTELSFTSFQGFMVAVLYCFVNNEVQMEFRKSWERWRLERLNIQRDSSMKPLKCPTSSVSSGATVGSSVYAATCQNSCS
The following applies: rats.

For series [6] the following is noted: U.S. Pat. No. 5,118,666.
For series [7] the following is noted: stored at 4° C. (Mojsov).
Series [8] relates to NIDDM patients. The settings on record: 4 ng/kg/min intravenously, continuously for one week.
For series [9] the following is noted: humans.
For series [10] the following is noted: Kreymann et al., 1987.
Series [11] relates to lean and obese subjects.
[12] abbreviates: intraventricular administration.

Take “GLP-1(7-36) amide: SEQ ID NO: 1; His-Ala-Glu-Gly-...-Lys-Gly-Arg-X wherein X is NH2 (HAEGTFTSDVSSYLEGQAAKEFIAWLVKGR-NH2; listed as Homo sapiens)”: in series [1], the time action entry is on record as “about 50 minutes”.

enfuvirtide: the “inhibition of HIV-1 mediated CD-4+ cell-cell fusion (syncytial formation) and infection of CD-4+ cells by cell-free virus” value in series [2] was “potent inhibitor”. Further, in [3], the toxicity result is given as “non-toxic”.

For the substance exendin 9-39, in series [4] (appropriate doses of the GLP-1 antagonist), the “antagonism of the GLP-1 effect on food intake” value is listed as “abolish the effects of GLP-1”. In addition, the “incretin effect elicited by oral glucose” value in series [5] was “dramatically reduces the incretin effect”.

As for “GLP-1(7-37): SEQ ID NO: 2; His-Ala-Glu-Gly-...-Lys-Gly-Arg-X wherein X is Gly”, in series [6], the biological half-life is recorded as 3 to 5 minutes and the serum half-life is 3 to 5 min. For the same substance, the “appearance of by-products on storage” value in series [7] was “have been found as early as eleven months after sample preparation”.

Consider “GLP-1: product of the proglucagon gene, gut incretin hormone”, for which, in series [8], the glycaemic control result was “dramatically improve glycaemic control” and the side effects result was “without significant side effects”. The food intake entry in series [4] (acute, peripheral administration) was “does not inhibit food intake acutely”. Also, in series [4] (setting [12]), the food intake entry is “profoundly inhibits food intake”. Also, the plasma half-life in [9] was 2 min. Also, in series [10], the “half-life of circulating GLP-1” value is listed as “about 4 minutes”.

Regarding “PYY: thirty six amino acid long peptide secreted by endocrine cells of the distal gastrointestinal tract”, the “appetite and food intake” value in [11] (administered intravenously, lean and obese subjects) is “suppresses appetite and food intake”. Moreover, in series [11] (oral, low absorption and rapid degradation in the gastrointestinal tract), the oral activity entry is “negligible”.

As for “N-terminally extended GLP-1 (PG 72-107)amide: N-terminally extended GLP-1, proglucagon 72-107 amide (QDFVQWLMNTKRNRNNIAKRHDEFERHAEGTFTSDV-NH2; UniProt P01275 72-107, looked up, fragment)”, in series [4] (setting [12]), the food intake entry is “inactive”.
